Assay results as given in patent publication US20250282776A1, “Bicyclic TLR7 Agonists and Uses Thereof” (Bristol-Myers Squibb Company, priority 2024, published 2025).

Key:
human TLR7 (hTLR7) = molecular target: T1, human TLR7 (hTLR7) (Homo sapiens, UniProt Q9NYK1); assay: Human TLR7 agonist activity assay (HEK-Blue TLR7 SEAP reporter); type: cell-based; conditions: HEK-Blue TLR7 cells, 18 h incubation, Quanti-Blue, OD 620 nm, some values average of multiple measurements
T1 construct: host or cells: HEK-Blue TLR7 cells (engineered human embryonic kidney cells)
T1 sequence (Q9NYK1 27-1049): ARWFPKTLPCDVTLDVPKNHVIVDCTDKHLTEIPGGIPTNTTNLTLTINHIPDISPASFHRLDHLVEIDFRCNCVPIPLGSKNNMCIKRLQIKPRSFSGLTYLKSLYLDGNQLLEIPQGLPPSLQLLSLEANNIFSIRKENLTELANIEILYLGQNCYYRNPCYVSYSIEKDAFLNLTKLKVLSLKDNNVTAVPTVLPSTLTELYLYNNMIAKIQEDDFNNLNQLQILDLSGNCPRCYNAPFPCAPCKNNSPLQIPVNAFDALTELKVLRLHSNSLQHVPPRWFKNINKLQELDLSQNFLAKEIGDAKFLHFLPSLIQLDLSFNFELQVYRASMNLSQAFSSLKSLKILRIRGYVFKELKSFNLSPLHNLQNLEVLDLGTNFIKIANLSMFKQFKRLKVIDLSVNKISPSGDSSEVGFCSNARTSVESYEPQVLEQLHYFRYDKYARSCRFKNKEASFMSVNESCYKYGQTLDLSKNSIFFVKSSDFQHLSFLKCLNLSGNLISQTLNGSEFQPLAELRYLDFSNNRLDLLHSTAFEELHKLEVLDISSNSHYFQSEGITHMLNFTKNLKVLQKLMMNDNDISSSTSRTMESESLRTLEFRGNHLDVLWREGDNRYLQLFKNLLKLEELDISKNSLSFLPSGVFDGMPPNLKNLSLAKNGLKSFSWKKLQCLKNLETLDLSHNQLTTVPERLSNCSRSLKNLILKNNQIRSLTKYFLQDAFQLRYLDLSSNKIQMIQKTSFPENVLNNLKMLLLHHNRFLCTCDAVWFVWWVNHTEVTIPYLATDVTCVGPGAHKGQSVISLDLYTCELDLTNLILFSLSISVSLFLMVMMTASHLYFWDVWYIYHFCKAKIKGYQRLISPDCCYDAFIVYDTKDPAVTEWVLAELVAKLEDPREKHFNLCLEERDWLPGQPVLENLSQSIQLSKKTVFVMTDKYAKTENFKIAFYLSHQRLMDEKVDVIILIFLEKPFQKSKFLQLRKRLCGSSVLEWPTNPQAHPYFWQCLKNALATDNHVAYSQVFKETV
Summary of the method: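 HEK-Blue TLR7 cells seeded 16-18 h, then exposed to compound for 18 h at 37 °C, 5% CO2. Secreted SEAP read with Quanti-Blue at OD 620 nm after 30 min. EC50 taken as concentration giving half-maximal response between baseline and maximum; some values averaged over repeats.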

human TLR8 (hTLR8) = molecular target: T2, human TLR8 (hTLR8) (Homo sapiens, UniProt Q9NR97); assay: Human TLR8 agonist activity assay (measured in a similar manner); type: cell-based; conditions: HEK-Blue TLR cells, SEAP reporter, measured in a similar manner to TLR7; some values average of multiple measurements
T2 construct: expressed in transfected cells
T2 sequence (Q9NR97 27-1041): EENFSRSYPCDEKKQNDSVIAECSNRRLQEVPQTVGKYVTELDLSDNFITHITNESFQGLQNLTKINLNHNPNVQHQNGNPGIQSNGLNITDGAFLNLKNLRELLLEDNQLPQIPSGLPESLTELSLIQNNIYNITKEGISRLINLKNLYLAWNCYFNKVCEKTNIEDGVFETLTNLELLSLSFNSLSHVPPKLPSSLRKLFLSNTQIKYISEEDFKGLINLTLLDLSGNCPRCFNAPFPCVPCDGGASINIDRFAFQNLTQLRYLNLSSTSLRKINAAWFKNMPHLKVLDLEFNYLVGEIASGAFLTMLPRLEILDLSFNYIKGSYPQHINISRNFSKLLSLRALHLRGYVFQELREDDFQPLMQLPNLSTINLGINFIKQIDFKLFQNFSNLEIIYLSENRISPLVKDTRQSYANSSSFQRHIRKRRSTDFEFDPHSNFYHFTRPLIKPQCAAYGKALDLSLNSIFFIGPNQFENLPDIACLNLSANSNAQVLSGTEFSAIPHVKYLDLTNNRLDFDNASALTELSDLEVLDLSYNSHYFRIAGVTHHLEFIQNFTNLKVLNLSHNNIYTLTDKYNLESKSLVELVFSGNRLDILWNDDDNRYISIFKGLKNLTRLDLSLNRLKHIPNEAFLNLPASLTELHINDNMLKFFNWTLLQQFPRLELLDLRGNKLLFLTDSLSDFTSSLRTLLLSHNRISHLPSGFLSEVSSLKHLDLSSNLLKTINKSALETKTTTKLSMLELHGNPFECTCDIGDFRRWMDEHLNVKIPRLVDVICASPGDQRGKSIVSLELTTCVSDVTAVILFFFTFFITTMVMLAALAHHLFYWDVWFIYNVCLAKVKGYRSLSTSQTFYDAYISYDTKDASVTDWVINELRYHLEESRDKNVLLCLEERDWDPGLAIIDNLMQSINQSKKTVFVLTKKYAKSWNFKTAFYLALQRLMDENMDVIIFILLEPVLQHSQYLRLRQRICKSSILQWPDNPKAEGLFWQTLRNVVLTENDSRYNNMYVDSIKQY
Summary of the method: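 Compounds were added to HEK-Blue TLR8 reporter cells, pre-incubated 16-18 h, then treated 18 h at 37° C, 5% CO2. SEAP output was measured with Quanti-Blue (30 min) at OD 620 nm. Some values are averages of multiple measurements.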

| EC50 (human TLR7 (hTLR7)) | EC50 (human TLR8 (hTLR8)) | SMILES |
| --- | --- | --- |
| 915 nM | 736 nM | CCCCN(CCO)c1nc(N)nc2cn(Cc3ccc(CNCCCC4CC4)c4cccnc34)nc12 [Compound 63] |
| 1280 nM | 3330 nM | CCCCN(CCO)c1nc(N)nc2cn(Cc3ccc(CN[C@H]4CC[C@H](CO)CC4)cc3C(F)F)nc12 [Compound 131] |
| 733 nM | 1130 nM | CCCCN(CCO)c1nc(N)nc2cn(Cc3ccc(CN4CCN(C)CC4)cc3OC)nc12 [Compound 13] |
| 1050 nM | 1050 nM | CCCCN(CCO)c1nc(N)nc2cn(Cc3ccc(CN4CCCC4)cc3C(F)F)nc12 [Compound 97] |
| 1340 nM | 1010 nM | CCCCN(CCO)c1nc(N)nc2cn(Cc3ccc(CN4CCCCC4)cc3OC)nc12 [Compound 2] |
| 1550 nM | 2170 nM | CCCCN(CCO)c1nc(N)nc2cn(Cc3ccc(CCNC4CCOCC4)cc3OC)nc12 [Compound 156] |
| 654 nM | 453 nM | CCCCN(CCO)c1nc(N)nc2cn(Cc3ccc(CNC4CCOC(C)(C)C4)cc3OC)nc12 (single isomer, unassigned) [Compound 111, 2-((5-Amino-2-(4-(((2,2-dimethyltetrahydro-2H-pyran-4-yl)amino)methyl)-2-methoxybenzyl)-2H-pyrazolo[4,3-d]pyrimidin-7-yl)(butyl)amino) ethan-1-ol] |
| 1160 nM | 1880 nM | CCCCN(CCO)c1nc(N)nc2cn(Cc3cc(OC)c(C4CCN(C5CCOCC5)CC4)cc3OC)nc12 [Compound 108] |
| 148 nM | 112 nM | CCCCN(CCO)c1nc(N)nc2c(C)n(Cc3ccc(CNC4CCOCC4)cc3OC)nc12 [Compound 212, 2-((5-Amino-2-(2-methoxy-4-(((tetrahydro-2H-pyran-4-yl)amino)methyl)benzyl)-3-methyl-2H-pyrazolo[4,3-d]pyrimidin-7-yl) (butyl)amino) ethan-1-ol] |
| 696 nM | 1470 nM | CCCCN(CCO)c1nc(N)nc2cn(Cc3ccc(CN4CCN(CCO)CC4)cc3OC)nc12 [Compound 19] |
| 1580 nM | 2500 nM | CCCCN(CCO)c1nc(N)nc2cn(Cc3c(F)cc(CN[C@H]4C[C@@H](OC)C4)cc3F)nc12 [Compound 118] |
| 658 nM | 506 nM | CCCCN(CCO)c1nc(N)nc2cn(Cc3ccc(CNCCOC)cc3)nc12 [Compound 161] |
| 1290 nM | 1140 nM | CCCCN(CCO)c1nc(N)nc2cn(Cc3ccc(CNC4CCC4)cc3OC)nc12 [Compound 1] |
| 1600 nM | 1570 nM | CCCCN(CCO)c1nc(N)nc2cn(Cc3ccc(CN[C@H]4C[C@H](OCC)C4)cc3OC)nc12 [Compound 101] |
| 251 nM | 858 nM | CCCCN(CCO)c1nc(N)nc2cn(Cc3c(F)cc(C4CCN(CC(N)=O)CC4)cc3OC)nc12 [Compound 41] |
| 550 nM | 1600 nM | CCCCN(CCO)c1nc(N)nc2cn(Cc3c(F)cc(C4=CCC(NC5CC6(COC6)C5)CC4)cc3OC)nc12 (stereo not drawn) [Compound 192] |
| 661 nM | 477 nM | CCCCNCc1ccc(Cn2cc3nc(N)nc(N(CCO)CCCC)c3n2)c(OC)c1 [Compound 12] |
| 757 nM | 488 nM | CCCCN(CCO)c1nc(N)nc2cn(Cc3ccc(CNC4CCOCC4)c4cccnc34)nc12 [Compound 58] |

| EC50 (human TLR7 (hTLR7)) | EC50 (human TLR8 (hTLR8)) | SMILES |
| --- | --- | --- |
| 199 nM | 497 nM | CCCCN(CCO)c1nc(N)nc2cn(Cc3c(F)cc(CN4CC(OC)C4)cc3OC)nc12 [Compound 84] |
| 1800 nM | 2420 nM | CCCCNCc1ccc(Cn2cc3nc(N)nc(N(CCO)CCCC)c3n2)c(C(F)F)c1 [Compound 127] |
| 380 nM | 447 nM | CCCCN(CCO)c1nc(N)nc2cn(Cc3ccc(CN4CCOCC4)cc3OC)nc12 [Compound 18] |
| 614 nM | 725 nM | CCCCN(CCO)c1nc(N)nc2cn(Cc3ccc(CNC4CCCOC4)c4scnc34)nc12 (stereo not drawn) [Compound 202] |
| 1700 nM | 1900 nM | CCCCN(CCO)c1nc(N)nc2cn(Cc3ccc(CNC4CCOCC4)n4ncnc34)nc12 [Compound 171] |
| 370 nM | 670 nM | CCCCN(CCO)c1nc(N)nc2cn(Cc3c(F)cc(CN[C@@H]4CCOC4)cc3OC)nc12 [Compound 75] |
| 1220 nM | 542 nM | CCCCN(CCO)c1nc(N)nc2cn(Cc3ccc(CN[C@H]4CCOC[C@H]4C)cc3OC)nc12 [Compound 139] |
| 2110 nM | 1550 nM | CCCCN(CCO)c1nc(N)nc2cn(Cc3ccc(CNC4CC(F)(F)C4)c4cccnc34)nc12 [Compound 64] |
| 2500 nM | 1200 nM | CCCCN(CCO)c1nc(N)nc2cn(Cc3ccc(CNC(C)(C)CO)cc3OC)nc12 [Compound 32] |
| 2190 nM | 1800 nM | CCCCN(CCO)c1nc(N)nc2cn(Cc3ccc(CNC4CCC4)cc3NC)nc12 [Compound 102] |
| 1410 nM | 1620 nM | CCCCN(CCO)c1nc(N)nc2cn(Cc3c(F)cc(CNCC(C)(C)C)cc3OC)nc12 [Compound 80] |
| 1330 nM | 2110 nM | CCCCN(CCO)c1nc(N)nc2cn(Cc3c(F)cc(CNCC4(CO)CC4)cc3OC)nc12 [Compound 92] |
| 280 nM | 205 nM | CCCCNCc1ccc(Cn2cc3nc(N)nc(N(CCO)CCCC)c3n2)c2ncccc12 [Compound 45] |
| 1240 nM | 2500 nM | CCCCN(CCO)c1nc(N)nc2cn(Cc3c(F)cc(CN[C@@H]4COC[C@@H]4O)cc3OC)nc12 [Compound 95] |
| 148 nM | 1970 nM | CCCCN(CCO)c1nc(N)nc2cn(Cc3ccc(CN[C@@H]4CCOC4)cc3OC)nc12 [Compound 85] |
| 587 nM | 834 nM | CCCCN(CCO)c1nc(N)nc2cn(Cc3ccc(CNC4(C)COC4)cc3OC)nc12 [Compound 21] |
| 294 nM | 230 nM | CCCCN(CCO)c1nc(N)nc2cn(Cc3ccc(CNC4CCOCC4)c4scnc34)nc12 [Compound 180, 2-((5-Amino-2-((7-(((tetrahydro-2H-pyran-4-yl)amino)methyl)benzo[d]thiazol-4-yl)methyl)-2H-pyrazolo[4,3-d]pyrimidin-7-yl)(butyl)amino)ethan-1-ol] |
| 731 nM | 486 nM | CCCCN(CCO)c1nc(N)nc2cn(Cc3ccc(CN[C@@H]4CCOC4)cc3OC)nc12 [Compound 53] |
